In ChEMBL document CHEMBL3259629, “Discovery and optimization of piperidyl-1,2,3-triazole ureas as potent, selective, and in vivo-active inhibitors of α/β-hydrolase domain containing 6 (ABHD6)” (J Med Chem, 2013):

Legend:
Details in all cases: Neuro2a, 3 nM
[1] = biological target: T1, Phospholipase DDHD1 (Mus musculus) (UniProt Q80YA3)
T1 sequence (whole entry): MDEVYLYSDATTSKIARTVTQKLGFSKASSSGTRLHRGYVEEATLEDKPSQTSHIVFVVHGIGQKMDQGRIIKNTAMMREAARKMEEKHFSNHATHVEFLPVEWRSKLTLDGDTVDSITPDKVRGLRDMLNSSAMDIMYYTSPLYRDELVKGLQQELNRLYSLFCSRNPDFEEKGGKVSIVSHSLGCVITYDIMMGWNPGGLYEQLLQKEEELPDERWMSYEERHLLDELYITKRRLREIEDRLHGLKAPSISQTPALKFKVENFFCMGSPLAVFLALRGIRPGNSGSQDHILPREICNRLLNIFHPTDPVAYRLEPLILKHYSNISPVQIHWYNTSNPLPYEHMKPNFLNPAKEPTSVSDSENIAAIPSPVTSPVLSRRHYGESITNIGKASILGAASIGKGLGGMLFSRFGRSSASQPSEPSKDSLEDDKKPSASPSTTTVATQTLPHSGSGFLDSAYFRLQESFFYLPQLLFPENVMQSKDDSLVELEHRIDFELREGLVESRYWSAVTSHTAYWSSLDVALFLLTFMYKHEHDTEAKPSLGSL
Description: Inhibition of Ddhd1 in mouse Neuro2a cells at 3 nM after 4 hrs by ABPP-SILAC assay

[2] = biological target: T2, Triacylglycerol hydrolase DDHD2 (Mus musculus) (UniProt Q80Y98)
T2 sequence (whole entry): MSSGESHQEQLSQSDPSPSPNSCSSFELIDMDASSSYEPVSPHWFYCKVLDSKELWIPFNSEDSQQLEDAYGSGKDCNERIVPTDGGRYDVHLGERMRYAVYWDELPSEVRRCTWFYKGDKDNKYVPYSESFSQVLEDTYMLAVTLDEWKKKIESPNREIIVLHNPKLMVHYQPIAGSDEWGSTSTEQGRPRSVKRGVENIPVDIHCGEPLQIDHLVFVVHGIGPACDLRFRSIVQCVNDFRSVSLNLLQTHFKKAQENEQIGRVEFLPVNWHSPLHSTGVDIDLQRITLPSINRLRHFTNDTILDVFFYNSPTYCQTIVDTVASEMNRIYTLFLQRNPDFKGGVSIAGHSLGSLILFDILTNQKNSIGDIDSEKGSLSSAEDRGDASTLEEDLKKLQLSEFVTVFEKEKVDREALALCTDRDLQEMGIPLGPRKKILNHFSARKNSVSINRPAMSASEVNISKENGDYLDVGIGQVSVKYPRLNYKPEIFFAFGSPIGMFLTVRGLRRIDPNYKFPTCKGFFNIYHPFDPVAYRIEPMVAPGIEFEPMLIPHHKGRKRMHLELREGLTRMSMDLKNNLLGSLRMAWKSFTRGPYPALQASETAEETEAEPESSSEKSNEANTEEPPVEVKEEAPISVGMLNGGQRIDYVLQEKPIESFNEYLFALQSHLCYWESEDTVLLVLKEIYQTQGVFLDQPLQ
Description: Inhibition of Ddhd2 in mouse Neuro2a cells at 3 nM after 4 hrs by ABPP-SILAC assay

[3] = biological target: T3, Lysosomal protective protein (Mus musculus) (UniProt P16675)
T3 sequence (whole entry): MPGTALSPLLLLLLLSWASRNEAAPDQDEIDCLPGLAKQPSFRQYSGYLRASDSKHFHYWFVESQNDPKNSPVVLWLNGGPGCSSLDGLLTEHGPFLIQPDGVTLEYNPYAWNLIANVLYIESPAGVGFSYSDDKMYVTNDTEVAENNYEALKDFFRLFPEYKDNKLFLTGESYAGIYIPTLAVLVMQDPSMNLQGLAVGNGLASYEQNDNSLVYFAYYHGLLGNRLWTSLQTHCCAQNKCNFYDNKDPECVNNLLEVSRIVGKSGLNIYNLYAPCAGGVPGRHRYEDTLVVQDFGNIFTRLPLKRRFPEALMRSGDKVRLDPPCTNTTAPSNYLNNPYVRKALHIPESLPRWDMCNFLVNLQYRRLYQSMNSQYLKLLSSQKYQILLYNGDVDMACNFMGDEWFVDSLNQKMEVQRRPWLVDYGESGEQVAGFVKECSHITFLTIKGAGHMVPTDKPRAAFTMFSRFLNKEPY
Description: Inhibition of Ctsa in mouse Neuro2a cells at 3 nM after 4 hrs by ABPP-SILAC assay

[4] = biological target: T4, Palmitoyl-protein thioesterase ABHD10, mitochondrial (Mus musculus) (UniProt Q6PE15)
T4 sequence (whole entry): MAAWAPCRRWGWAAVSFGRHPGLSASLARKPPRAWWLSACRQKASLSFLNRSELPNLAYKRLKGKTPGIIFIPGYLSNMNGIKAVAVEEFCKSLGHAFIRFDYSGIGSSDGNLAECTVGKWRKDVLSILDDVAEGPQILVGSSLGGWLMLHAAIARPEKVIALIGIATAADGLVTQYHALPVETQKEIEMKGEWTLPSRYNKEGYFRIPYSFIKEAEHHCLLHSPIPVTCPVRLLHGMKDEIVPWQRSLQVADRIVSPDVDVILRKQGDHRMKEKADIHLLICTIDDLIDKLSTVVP
Description: Inhibition of Abhd10 in mouse Neuro2a cells at 3 nM after 4 hrs by ABPP-SILAC assay

[5] = biological target: T5, Presenilin-associated rhomboid-like protein, mitochondrial (Mus musculus) (UniProt Q5XJY4)
T5 sequence (whole entry): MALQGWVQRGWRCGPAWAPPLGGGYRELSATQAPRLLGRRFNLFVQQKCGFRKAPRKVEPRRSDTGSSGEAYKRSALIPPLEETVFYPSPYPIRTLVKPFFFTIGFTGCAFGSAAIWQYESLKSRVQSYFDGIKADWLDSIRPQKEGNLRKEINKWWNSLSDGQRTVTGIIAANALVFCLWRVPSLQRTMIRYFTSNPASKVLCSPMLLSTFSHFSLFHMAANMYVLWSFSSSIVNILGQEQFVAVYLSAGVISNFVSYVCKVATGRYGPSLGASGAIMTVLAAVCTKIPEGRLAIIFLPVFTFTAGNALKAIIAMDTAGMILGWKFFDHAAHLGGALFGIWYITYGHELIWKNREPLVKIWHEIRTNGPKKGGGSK
Description: Inhibition of Parl in mouse Neuro2a cells at 3 nM after 4 hrs by ABPP-SILAC assay

[6] = biological target: T6, Lysosomal thioesterase PPT2 (Mus musculus) (UniProt O35448)
T6 sequence (whole entry): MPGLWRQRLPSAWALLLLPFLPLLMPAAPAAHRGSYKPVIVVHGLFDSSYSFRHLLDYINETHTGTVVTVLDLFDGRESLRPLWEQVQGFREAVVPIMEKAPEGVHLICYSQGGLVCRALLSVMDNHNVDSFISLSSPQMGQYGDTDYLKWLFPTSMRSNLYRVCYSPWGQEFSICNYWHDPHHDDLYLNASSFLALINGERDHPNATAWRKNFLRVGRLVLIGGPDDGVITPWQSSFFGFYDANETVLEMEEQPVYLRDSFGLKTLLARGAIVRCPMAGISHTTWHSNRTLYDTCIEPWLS
Description: Inhibition of Ppt2 in mouse Neuro2a cells at 3 nM after 4 hrs by ABPP-SILAC assay

Measured: inhibition

O=C(O)c1cccc(-c2ccc(-c3cn(C(=O)N4CCCCC4Cc4ccccc4)nn3)cc2)c1 (racemic)
< 50%: [1] | [2] | [3] | [4] | [5] | [6]

O=C(N1CCCCC1c1ccccc1)n1cc(-c2ccc(-c3cccc(CO)c3)cc2)nn1 (racemic)
< 50%: [1] | [2] | [3] | [4] | [5] | [6]

O=C(c1cccc(-c2ccc(-c3cn(C(=O)N4CCCCC4c4ccccc4)nn3)cc2)c1)N1CCCCC1 (racemic)
< 50%: [1] | [2] | [3] | [4] | [5] | [6]
